Consider one compound from patent US20030220415A1, “Heterocyclic amine diol compounds and their biocidal derivatives” (priority 2002, published 2003).

In the experiment the test system is Staphylococcus aureus bacteria. The note with it: 1957 mg/L solution, chlorine-demand-free water pH 7, ambient temperature.

Structures are written as SMILES. Where two headings read alike, the source gives them in different places. Where only a bound is given, the exact number is not on record here.

On to `CC1(C)C(=O)N(CN(CCO)CCO)C(=O)N1Cl` [chlorinated heterocyclic amine diol, 1-chloro-3-[1-bis(N,N-2-hydroxyethyl)aminomethyl]-5,5-dimethyl-1,3-imidazolidin-2,4-dione], for which the “inactivation of Staphylococcus aureus” value is on record as above 5 logs (contact time 30 min) and above 5 logs (contact time 60 min).
